Experimental data taken from PubChem BioAssay AID248 (DTP/NCI, 2004).
Values joined by “and” are separate entries in the source; they are usually repeats but may differ in a detail not shown here. Equal values may be shown once. Inconclusive results and toxic doses are left out. No stated cut-off is given here; in the data, active means T/C of 150% or more; inactive means T/C below 125%.

Test system: L1210 leukemia ip in BDF1 mice, survival T/C
Assay: NCI In Vivo Anticancer Drug Screen. Data for tumor model L1210 Leukemia (intraperitoneal) in B6D2F1 (BDF1) mice
Details: higher = longer survival
How it was run: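 Antitumor effect is assessed in tumor-bearing animals. Survival in the compound arm is compared with a vehicle-dosed control arm and expressed as their quotient.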

[1] = endpoint: mean survival time, dose: 25.0 mg/kg/injection, schedule: Q01DX009 (ip), vehicle: saline
[2] = endpoint: mean survival time, dose: 50.0 mg/kg/injection, schedule: Q01DX009 (ip), vehicle: saline
[3] = endpoint: mean survival time, dose: 100.0 mg/kg/injection, schedule: Q01DX009 (ip), vehicle: saline
[4] = endpoint: mean survival time, dose: 200.0 mg/kg/injection, schedule: Q01DX009 (ip), vehicle: saline
[5] = endpoint: mean survival time, dose: 400.0 mg/kg/injection, schedule: Q01DX009 (ip), vehicle: saline
[6] = endpoint: mean survival time, dose: 75.0 mg/kg/injection, schedule: Q01DX001 (ip), vehicle: Klucel (hydroxypropylcellulose) (HPC)
[7] = endpoint: mean survival time, dose: 150.0 mg/kg/injection, schedule: Q01DX001 (ip), vehicle: Klucel (hydroxypropylcellulose) (HPC)
[8] = endpoint: mean survival time, dose: 50.0 mg/kg/injection, schedule: Q01DX001 (ip), vehicle: carboxymethylcellulose (CMC)
[9] = endpoint: mean survival time, dose: 100.0 mg/kg/injection, schedule: Q01DX001 (ip), vehicle: carboxymethylcellulose (CMC)
[10] = endpoint: mean survival time, dose: 200.0 mg/kg/injection, schedule: Q01DX001 (ip), vehicle: carboxymethylcellulose (CMC)
[11] = endpoint: mean survival time, dose: 400.0 mg/kg/injection, schedule: Q01DX001 (ip), vehicle: carboxymethylcellulose (CMC)
[12] = endpoint: mean survival time, dose: 100.0 mg/kg/injection, schedule: Q04DX003 (ip), vehicle: saline
[13] = endpoint: mean survival time, dose: 200.0 mg/kg/injection, schedule: Q04DX003 (ip), vehicle: saline
[14] = endpoint: mean survival time, dose: 400.0 mg/kg/injection, schedule: Q04DX003 (ip), vehicle: saline
[15] = endpoint: mean survival time, dose: 25.0 mg/kg/injection, schedule: Q01DX001 (ip), vehicle: saline
[16] = endpoint: mean survival time, dose: 50.0 mg/kg/injection, schedule: Q01DX001 (ip), vehicle: saline
[17] = endpoint: mean survival time, dose: 100.0 mg/kg/injection, schedule: Q01DX001 (ip), vehicle: saline
[18] = endpoint: mean survival time, dose: 100.0 mg/kg/injection, schedule: Q04DX003 (ip), vehicle: Klucel (hydroxypropylcellulose) (HPC)

Measured: T/C

O=C1NC(O)CCN1C1OC(CO)C(O)C1O (centres undefined)
inactive: [1] 101 % of control | [2] 113 % of control | endpoint: mean survival time, dose: 50.0 mg/kg/injection, schedule: Q01DX015 (ip), vehicle: saline 98 % of control | [3] 95 % of control | endpoint: mean survival time, dose: 100.0 mg/kg/injection, schedule: Q01DX015 (ip), vehicle: saline 94 % of control | [4] 110 % of control | [5] 90 % of control | endpoint: mean survival time, dose: 800.0 mg/kg/injection, schedule: Q01DX009 (ip), vehicle: saline 95 % of control | endpoint: median survival time, dose: 500.0 mg/kg/injection, schedule: Q01DX009 (ip), vehicle: saline 102 % of control | endpoint: median survival time, dose: 1000.0 mg/kg/injection, schedule: Q01DX009 (ip), vehicle: saline 94 % of control | endpoint: median survival time, dose: 2000.0 mg/kg/injection, schedule: Q01DX009 (ip), vehicle: saline 93 % of control

BrC1c2ccccc2-c2nc3ccccc3cc21 (centres undefined)
inactive: endpoint: mean survival time, dose: 37.5 mg/kg/injection, schedule: Q01DX001 (ip), vehicle: Klucel (hydroxypropylcellulose) (HPC) 103 % of control | [6] 97 % of control | [7] 101 % of control

CCCCC=C(C)C
inactive: [8] 106 % of control | [9] 93 % of control | [10] 104 % of control | [11] 104 % of control

OC1(C#CC#CC2(O)CCCCC2)CCCCC1
inactive: [12] 92 % of control | [13] 98 % of control | [14] 93 % of control

CN(CCO)C(=O)/C=C/c1ccccc1
inactive: [2] 100 % of control | [3] 94 % of control | [4] 92 % of control

CN(C)CC(Oc1ccccc1)c1ccccc1 (centres undefined)
inactive: endpoint: mean survival time, dose: 100.0 mg/kg/injection, schedule: Q04DX002 (ip), vehicle: saline 98 % of control

Nc1cccc(C(F)(F)F)c1
inactive: [1] 103 % of control | [2] 103 % of control | [3] 94 % of control and 88 % of control

CC(=O)Nc1ccccc1.[Hg]
inactive: endpoint: mean survival time, dose: 1.56 mg/kg/injection, schedule: Q01DX009 (ip), vehicle: saline with Tween-80 90 % of control | endpoint: mean survival time, dose: 3.13 mg/kg/injection, schedule: Q01DX009 (ip), vehicle: saline with Tween-80 88 % of control

NCCCCCCNC(=O)CCCCC(=O)NCCCCCCN
inactive: endpoint: mean survival time, dose: 8.0 mg/kg/injection, schedule: Q01DX Z (ip), vehicle: water 88 % of control | endpoint: mean survival time, dose: 16.0 mg/kg/injection, schedule: Q01DX Z (ip), vehicle: water 86 % of control | endpoint: mean survival time, dose: 32.0 mg/kg/injection, schedule: Q01DX Z (ip), vehicle: water 89 % of control | endpoint: mean survival time, dose: 64.0 mg/kg/injection, schedule: Q01DX Z (ip), vehicle: saline 90 % of control | endpoint: mean survival time, dose: 64.0 mg/kg/injection, schedule: Q01DX Z (ip), vehicle: water 91 % of control

CC(=O)NC(=O)NC(=O)CC#N
inactive: endpoint: mean survival time, dose: 100.0 mg/kg/injection, schedule: Q01DX001 (ip), vehicle: Klucel (hydroxypropylcellulose) (HPC) 90 % of control | endpoint: mean survival time, dose: 200.0 mg/kg/injection, schedule: Q01DX001 (ip), vehicle: Klucel (hydroxypropylcellulose) (HPC) 88 % of control | endpoint: mean survival time, dose: 400.0 mg/kg/injection, schedule: Q01DX001 (ip), vehicle: Klucel (hydroxypropylcellulose) (HPC) 93 % of control

COc1cc(C)n2nnnc2n1
inactive: [15] 91 % of control | [16] 96 % of control | [17] 96 % of control

O=C(O)c1cc([N+](=O)[O-])cc(P(=O)(O)O)c1
inactive: endpoint: mean survival time, dose: 12.5 mg/kg/injection, schedule: Q01DX001 (ip), vehicle: saline 86 % of control | endpoint: mean survival time, dose: 12.5 mg/kg/injection, schedule: Q04DX003 (ip), vehicle: saline 96 % of control | [15] 99 % of control | endpoint: mean survival time, dose: 25.0 mg/kg/injection, schedule: Q04DX003 (ip), vehicle: saline 89 % of control | [16] 87 % of control | endpoint: mean survival time, dose: 50.0 mg/kg/injection, schedule: Q04DX003 (ip), vehicle: saline 94 % of control | endpoint: mean survival time, dose: 75.0 mg/kg/injection, schedule: Q01DX009 (ip), vehicle: saline 100 % of control | endpoint: mean survival time, dose: 115.0 mg/kg/injection, schedule: Q01DX009 (ip), vehicle: saline 92 % of control

Cc1ccc(NC(=O)C(Cl)(Cl)Cl)cc1[N+](=O)[O-]
inactive: endpoint: mean survival time, dose: 100.0 mg/kg/injection, schedule: Q01DX009 (ip), vehicle: saline with Tween-80 94 % of control | endpoint: mean survival time, dose: 200.0 mg/kg/injection, schedule: Q01DX009 (ip), vehicle: saline with Tween-80 100 % of control | endpoint: mean survival time, dose: 400.0 mg/kg/injection, schedule: Q01DX009 (ip), vehicle: saline with Tween-80 104 % of control

Cc1ccc([N+](=O)[O-])c(C)c1
inactive: endpoint: mean survival time, dose: 100.0 mg/kg/injection, schedule: Q01DX009 (ip), vehicle: Klucel (hydroxypropylcellulose) (HPC) 92 % of control | [18] 105 % of control | endpoint: mean survival time, dose: 200.0 mg/kg/injection, schedule: Q01DX009 (ip), vehicle: Klucel (hydroxypropylcellulose) (HPC) 96 % of control | endpoint: mean survival time, dose: 200.0 mg/kg/injection, schedule: Q04DX003 (ip), vehicle: Klucel (hydroxypropylcellulose) (HPC) 104 % of control | endpoint: mean survival time, dose: 400.0 mg/kg/injection, schedule: Q01DX009 (ip), vehicle: Klucel (hydroxypropylcellulose) (HPC) 102 % of control | endpoint: mean survival time, dose: 400.0 mg/kg/injection, schedule: Q04DX003 (ip), vehicle: Klucel (hydroxypropylcellulose) (HPC) 102 % of control

CCCCC(=O)N/N=C/c1ccc(I)cc1
inactive: [9] 91 % of control | [10] 87 % of control | [11] 91 % of control

S=C1CC2CCCC(C2)N1 (centres undefined)
inactive: endpoint: mean survival time, dose: 10.0 mg/kg/injection, schedule: Q01DX001 (ip), vehicle: carboxymethylcellulose (CMC) 93 % of control | endpoint: mean survival time, dose: 20.0 mg/kg/injection, schedule: Q01DX001 (ip), vehicle: carboxymethylcellulose (CMC) 93 % of control | endpoint: mean survival time, dose: 80.0 mg/kg/injection, schedule: Q01DX001 (ip), vehicle: carboxymethylcellulose (CMC) 100 % of control

CCCCN1C(=O)N(c2ccc(OCC)cc2)C2N(CCCC)C1C(C)(C)C2(C)C (centres undefined)
inactive: endpoint: mean survival time, dose: 25.0 mg/kg/injection, schedule: Q04DX002 (ip), vehicle: saline with Tween-80 103 % of control | endpoint: mean survival time, dose: 50.0 mg/kg/injection, schedule: Q04DX002 (ip), vehicle: saline with Tween-80 118 % of control | endpoint: mean survival time, dose: 100.0 mg/kg/injection, schedule: Q04DX002 (ip), vehicle: saline with Tween-80 122 % of control

CCc1ccc(CC(=S)N2CCOCC2)cc1
inactive: [9] 101 % of control | [10] 95 % of control | [11] 109 % of control

CN(C(=O)c1ccccc1)N(C)C(=O)c1ccccc1
inactive: endpoint: mean survival time, dose: 25.0 mg/kg/injection, schedule: Q01DX009 (ip), vehicle: Klucel (hydroxypropylcellulose) (HPC) 106 % of control | endpoint: mean survival time, dose: 50.0 mg/kg/injection, schedule: Q01DX009 (ip), vehicle: Klucel (hydroxypropylcellulose) (HPC) 95 % of control | endpoint: mean survival time, dose: 50.0 mg/kg/injection, schedule: Q04DX003 (ip), vehicle: Klucel (hydroxypropylcellulose) (HPC) 98 % of control | [18] 110 % of control

O=c1c(N=Nc2ccc(Br)cc2)c(O)n(-c2ccccc2Cl)c(=S)n1-c1ccccc1
inactive: [6] 90 % of control | [7] 101 % of control

CCOC(=O)n1ncnc1N
inactive: [3] 94 % of control | [12] 91 % of control | [4] 98 % of control | [13] 98 % of control | [5] 104 % of control | [14] 95 % of control

CCN(CC)CCN1C(=O)c2ccccc2S1(=O)=O
inactive: endpoint: mean survival time, dose: 44.0 mg/kg/injection, schedule: Q01DX Z (ip), vehicle: saline 100 % of control | endpoint: mean survival time, dose: 66.0 mg/kg/injection, schedule: Q01DX Z (ip), vehicle: saline 98 % of control | endpoint: mean survival time, dose: 100.0 mg/kg/injection, schedule: Q01DX Z (ip), vehicle: saline 98 % of control

COc1cc([N+](=O)[O-])c2nc(C(Br)(Br)Br)ccc2c1[N+](=O)[O-]
inactive: [8] 105 % of control | [9] 111 % of control | [10] 96 % of control | [11] 103 % of control

COc1ccccc1CCCO
inactive: [16] 97 % of control | [17] 105 % of control | endpoint: mean survival time, dose: 200.0 mg/kg/injection, schedule: Q01DX001 (ip), vehicle: saline 100 % of control | endpoint: mean survival time, dose: 400.0 mg/kg/injection, schedule: Q01DX001 (ip), vehicle: saline 105 % of control

CCOC(=O)/C=C/c1c(OC)cc(OC)cc1OC
inactive: endpoint: mean survival time, dose: 100.0 mg/kg/injection, schedule: Q01DX009 (ip), vehicle: other 97 % of control | [12] 101 % of control | endpoint: mean survival time, dose: 200.0 mg/kg/injection, schedule: Q01DX009 (ip), vehicle: other 106 % of control | [13] 101 % of control | endpoint: mean survival time, dose: 400.0 mg/kg/injection, schedule: Q01DX009 (ip), vehicle: other 94 % of control | [14] 93 % of control
